By IC50 is commonly meant the concentration that gives 50% inhibition.

This test addresses T1, human chemokine receptor 2 isoform B (CCR2) (Homo sapiens, UniProt P41597).
T1 sequence (P41597 1-360 isoform P41597-2): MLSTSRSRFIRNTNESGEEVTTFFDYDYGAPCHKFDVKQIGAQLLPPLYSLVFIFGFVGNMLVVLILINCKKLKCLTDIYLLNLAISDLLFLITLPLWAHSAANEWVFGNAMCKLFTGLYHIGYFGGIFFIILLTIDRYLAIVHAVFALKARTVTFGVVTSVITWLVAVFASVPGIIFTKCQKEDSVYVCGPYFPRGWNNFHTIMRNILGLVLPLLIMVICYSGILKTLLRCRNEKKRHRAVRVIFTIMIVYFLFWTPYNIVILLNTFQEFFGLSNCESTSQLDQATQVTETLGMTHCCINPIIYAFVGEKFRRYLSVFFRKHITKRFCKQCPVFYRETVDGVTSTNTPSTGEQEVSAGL
As to the kind of experiment: Calcium mobilization assay (FLIPR, MCP-1 stimulated CHOK1-CCR2B-A5 cells). Format: cell-based. Conditions: Ca mobilisation assay, CCR2 antagonist activity, inhibition of MCP-1 induced calcium increase. The procedure:
Calcium Mobilization Assay
CHOK1-CCR2B-A5 cells (from Euroscreen) stably overexpressing the human chemokine receptor 2 isoform B were cultured in Nutrient Hams F12 medium supplemented with 5% FBS, 100 U/ml penicillin, 100 μg/ml streptomycin, 400 μg/ml G418 and 5 μg/ml puromycin.
For the assay cells were grown overnight in 384-well black clear flat bottom polystyrene plates (Costar) at 37° C. at 5% CO2. After washing with DMEM, 20 mM Hepes, 2.5 mM probenecid, 0.1% BSA (DMEM assay buffer) cells were loaded with 4 μM Fluo-4 in the same DMEM assay buffer for 2 hours at 30° C. Excess dye was removed and cells were washed with DMEM assay buffer. 384-well compound plates were prepared with DMEM assay buffer/0.5% DMSO with or without various concentrations of test compounds. Usually compounds were tested for agonist and antagonist activity.
Test compounds were added to the assay plate and agonist activity was monitored as fluorescence for 80 seconds with a FLIPR (488 nm excitation; 510-570 nm emission; Molecular Devices). After 20-30 min. of incubation at 30° C., […] MCP-1 (R&D; Roche) was added and fluorescence was monitored again for 80 seconds. Increases in intracellular calcium are reported as maximum fluorescence after agonist exposure minus basal fluorescence before exposure. Antagonist activity is indicated as inhibitor concentration required for 50% inhibition of specific calcium increases.
With `CC(=O)OC[C@H](CCN1CCC2(CC2)[C@H](O)C1)N1CCN(C(=O)Nc2ccc(Cl)c(Cl)c2)[C@@H](C)C1=O` [Example 108, Acetic acid (S)-2-[(S)-4-(3,4-dichloro-phenylcarbamoyl)-3-methyl-2-oxo-piperazin-1-yl]-4-((S)-4-hydroxy-6-aza-spiro[2.5]oct-6-yl)-butyl ester], the IC50 came to 2 nM.

As to `C[C@H]1C(=O)N(CCCCN2CCC3(CC3)[C@H](O)C2)CCN1C(=O)Nc1cccc(-c2cccnc2)c1` [Example 94, (S)-4-[4-((S)-4-Hydroxy-6-aza-spiro[2.5]oct-6-yl)-butyl]-2-methyl-3-oxo-piperazine-1-carboxylic acid (3-pyridin-3-yl-phenyl)-amide], the IC50 was 293 nM.

With `O=C1CCN(C(=O)Nc2ccc(Cl)c(Cl)c2)[C@H](c2ccccc2)CN1CCCN1CCCCC1` [Example 30, (R)-5-Oxo-2-phenyl-4-(3-piperidin-1-yl-propyl)-[1,4]diazepane-1-carboxylic acid (3,4-dichloro-phenyl)-amide], the IC50 was found to be 960 nM.

With `O=C1CCN(C(=O)Nc2ccc(Cl)c(Cl)c2)[C@H](Cc2ccccc2)CN1CCCN1CCCCC1` [Example 27, (R)-2-Benzyl-5-oxo-4-(3-piperidin-1-yl-propyl)-[1,4]diazepane-1-carboxylic acid (3,4-dichloro-phenyl)-amide], the IC50 turned out to be 540 nM.

As to `C[C@@H]1CN(CCCN2CCC3(CC3)[C@H](O)C2)C(=O)CCN1C(=O)Nc1cccc(Cl)c1` [Example 60, (R)-4-[3-((S)-4-Hydroxy-6-aza-spiro[2.5]oct-6-yl)-propyl]-2-methyl-5-oxo-[1,4]diazepane-1-carboxylic acid (3-chloro-phenyl)-amide], the IC50 came out at 60 nM.

Regarding `C[C@H]1C(=O)N(CCCN2CCCCC2)CCN1C(=O)Nc1cccc(-c2ccccc2)c1` [Example 43, (S)-2-Methyl-3-oxo-4-(3-piperidin-1-yl-propyl)-piperazine-1-carboxylic acid biphenyl-3-ylamide], the IC50 is 610 nM.

With `C[C@H]1C(=O)N(CCCCN2CCC3(CC3)[C@H](O)C2)CCN1C(=O)Nc1ccc2ccccc2c1` [Example 91, (S)-4-[4-((S)-4-Hydroxy-6-aza-spiro[2.5]oct-6-yl)-butyl]-2-methyl-3-oxo-piperazine-1-carboxylic acid naphthalen-2-ylamide], the IC50 turned out to be 6 nM.

Consider `C[C@H]1C(=O)N(CCCCN2CCC3(CC3)[C@H](O)C2)CCN1C(=O)Nc1ccc(C(F)(F)F)cc1` [Example 88, (S)-4-[4-((S)-4-Hydroxy-6-aza-spiro[2.5]oct-6-yl)-butyl]-2-methyl-3-oxo-piperazine-1-carboxylic acid (4-trifluoromethyl-phenyl)-amide], for which the 50% inhibitory concentration (IC50) is 97 nM.

Regarding `C[C@H]1C(=O)N(CCCCN2CCC3(CC3)[C@H](O)C2)CCN1C(=O)Nc1cccc(Cl)c1` [Example 87, (S)-4-[4-((S)-4-Hydroxy-6-aza-spiro[2.5]oct-6-yl)-butyl]-2-methyl-3-oxo-piperazine-1-carboxylic acid (3-chloro-phenyl)-amide], the IC50 was 5 nM.

Take `O=S1(=O)CCN(C(=S)Nc2ccc(Cl)c(Cl)c2)CCN1CCCN1CCCCC1` [Example 22, 1,1-Dioxo-2-(3-piperidin-1-yl-propyl)-[1,2,5]thiadiazepane-5-carbothioic acid (3,4-dichloro-phenyl)-amide]: the IC50 was determined as 770 nM.

In the case of `C[C@@H]1CN(CCCN2CCCCC2)C(=O)CCN1C(=S)Nc1ccc(Cl)c(Cl)c1` [Example 26, (R)-2-Methyl-5-oxo-4-(3-piperidin-1-yl-propyl)-[1,4]diazepane-1-carbothioic acid (3,4-dichloro-phenyl)-amide], the IC50 was found to be 580 nM.

On to `C[C@H]1C(=O)N(C[C@H](O)CN2CCC3(CC3)[C@H](O)C2)CCN1C(=O)Nc1ccc(Cl)c(Cl)c1` [Example 122, (S)-4-[(R)-2-Hydroxy-3-((S)-4-hydroxy-6-aza-spiro[2.5]oct-6-yl)-propyl]-2-methyl-3-oxo-piperazine-1-carboxylic acid (3,4-dichloro-phenyl)-amide], for which the IC50 was 23 nM.

On to `O=C(Nc1cccc(Cl)c1)N1CCC(=O)N(C(CO)CCN2CCC3(CC3)[C@H](O)C2)CC1` (stereo partly drawn) [Example 2, (R,S)-4-[3-((S)-4-Hydroxy-6-aza-spiro[2.5]oct-6-yl)-1-hydroxymethyl-propyl]-5-oxo-[1,4]diazepane-1-carboxylic acid (3-chloro-phenyl)-amide], for which the IC50 stood at 40 nM.

Regarding `C[C@H]1C(=O)N(CCCN2CCC[C@@H](O)C2)CCN1C(=O)Nc1ccc(Cl)c(Cl)c1` [Example 48, (S)-4-[3-((R)-3-Hydroxy-piperidin-1-yl)-propyl]-2-methyl-3-oxo-piperazine-1-carboxylic acid (3,4-dichloro-phenyl)-amide], the IC50 is 370 nM.

For the compound `C[C@H]1C(=O)N(CCCCN2CCC3(CC3)[C@H](O)C2)CCN1C(=O)Nc1cccc(-c2ccncc2)c1` [Example 95, (S)-4-[4-((S)-4-Hydroxy-6-aza-spiro[2.5]oct-6-yl)-butyl]-2-methyl-3-oxo-piperazine-1-carboxylic acid (3-pyridin-4-yl-phenyl)-amide], the IC50 stood at 565 nM.

As to `COC[C@H](CCN1CCC2(CC2)[C@H](O)C1)N1CCN(C(=O)Nc2cccc(F)c2)[C@@H](C)C1=O` [Example 83, (S)-4-[(S)-3-((S)-4-Hydroxy-6-aza-spiro[2.5]oct-6-yl)-1-methoxymethyl-propyl]-2-methyl-3-oxo-piperazine-1-carboxylic acid (3-fluoro-phenyl)-amide], the IC50 came out at 9 nM.

Take `C[C@H]1C(=O)N(CCCCN2CCC3(CC3)[C@H](O)C2)CCN1C(=S)Oc1ccc2ccccc2c1` [Example 92, (S)-4-[4-((S)-4-Hydroxy-6-aza-spiro[2.5]oct-6-yl)-butyl]-2-methyl-3-oxo-piperazine-1-carbothioic acid O-naphthalen-2-yl ester]: the IC50 is 624 nM.

For the compound `COCC(CCN1CCC2(CC2)[C@H](O)C1)N1CCN(C(=O)Nc2cccc(Cl)c2)CCC1=O` (stereo partly drawn) [Example 5, (R,S)-4-[3-((S)-4-Hydroxy-6-aza-spiro[2.5]oct-6-yl)-1-methoxymethyl-propyl]-5-oxo-[1,4]diazepane-1-carboxylic acid (3-chloro-phenyl)-amide], the IC50 worked out at 50 nM.

On to `CCCCCC(=O)OC[C@H](CCN1CCC2(CC2)[C@H](O)C1)N1CCN(C(=O)Nc2ccc(Cl)c(Cl)c2)[C@@H](C)C1=O` [Example 116, Hexanoic acid (S)-2-[(S)-4-(3,4-dichloro-phenylcarbamoyl)-3-methyl-2-oxo-piperazin-1-yl]-4-((S)-4-hydroxy-6-aza-spiro[2.5]oct-6-yl)-butyl ester], for which the IC50 was 5 nM.

Consider `COC[C@H](CCN1CCCCC1)N1CCN(C(=O)Nc2ccc(Cl)c(Cl)c2)[C@@H](C)C1=O` [Example 81, (S)-4-((S)-1-Methoxymethyl-3-piperidin-1-yl-propyl)-2-methyl-3-oxo-piperazine-1-carboxylic acid (3,4-dichloro-phenyl)-amide], for which the IC50 stood at 9 nM.

Turning to `CC(=O)OC[C@H](CCN1CCC2(CC2)[C@H](O)C1)N1CCN(C(=O)Nc2cccc(Cl)c2)[C@@H](C)C1=O` [Example 109, Acetic acid (S)-2-[(S)-4-(3-chloro-phenylcarbamoyl)-3-methyl-2-oxo-piperazin-1-yl]-4-((S)-4-hydroxy-6-aza-spiro[2.5]oct-6-yl)-butyl ester], the half-inhibitory concentration (IC50) was 10 nM.

In the case of `CC1CN(C(CO)CCN2CCC3(CC3)[C@H](O)C2)C(=O)CCN1C(=O)Nc1cccc(Cl)c1` (stereo in doubt) [Example 63, (R)-4-[(S)-3-((S)-4-Hydroxy-6-aza-spiro[2.5]oct-6-yl)-1-hydroxymethyl-propyl]-2-methyl-5-oxo-[1,4]diazepane-1-carboxylic acid (3-chloro-phenyl)-amide], the IC50 turned out to be 5.1 nM.

Consider `COC[C@H](CCN1CCC2(CC2)[C@H](O)C1)N1CCN(C(=O)Nc2cccc(Cl)c2)[C@H](C)C1=O` [Example 85, (R)-4-[(S)-3-((S)-4-Hydroxy-6-aza-spiro[2.5]oct-6-yl)-1-methoxymethyl-propyl]-2-methyl-3-oxo-piperazine-1-carboxylic acid (3-chloro-phenyl)-amide], for which the IC50 came to 180 nM.

As to `COC[C@H](CCN1CCC2(CC2)[C@H](O)C1)N1CCN(C(=O)Nc2ccc(Cl)c(Cl)c2)CCC1=O` [Example 56, 4-[(S)-3-((S)-4-hydroxy-6-aza-spiro[2.5]oct-6-yl)-1-methoxymethyl-propyl]-5-oxo-[1,4]diazepane-1-carboxylic acid (3,4-dichloro-phenyl)-amide], the IC50 was found to be 2 nM.

The values are drawn from patent US8071586B2, “Heterocyclyl compounds” (Hoffmann-La Roche Inc., priority 2008, dated 2011).
